The structures appear in SMILES notation. Structures can show the parent of a compound that is named as a salt. Where two headings read alike, the source gives them in different places.

The IC50 is the midpoint of a concentration-inhibition curve.

The target of data set [1] is T1, human JAK1 (a.a. 837-1142) (Homo sapiens, UniProt P23458).
T1 construct: human JAK1 (a.a. 837-1142); His tag (N); made in house; host or cells: insect cells (baculovirus)
Put plainly: In vitro JAK kinase assay (HTRF, phosphorylation of a biotinylated peptide), JAK1. The conditions noted are these: read-out: JAK1 IC50. The class given is biochemical. The method in brief: (§1)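 Phosphorylation of a biotinylated peptide by the JAK kinase domain, detected by HTRF with Eu-Py20 and SA-APC. ATP was 90 μM for JAK1, 30 μM for JAK2 and 3 μM for JAK3. Reactions ran 1 h at room temperature and were stopped with EDTA, followed by 40 min antibody binding.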
Background: In TR-FRET formats the signal depends on donor and acceptor labels being close together.

For data set [2], the target named is T2, human JAK2 (a.a. 828-1132) (Homo sapiens, UniProt O60674).
T2 construct: JAK2 (a.a. 828-1132); His tag (N); made in house; host or cells: insect cells (baculovirus)
Put plainly: In vitro JAK kinase assay (HTRF, phosphorylation of a biotinylated peptide), JAK2. The format is biochemical. Put shortly: as §1

In data set [3] the target is T3, human JAK3 (a.a. 781-1124) (Homo sapiens, UniProt P52333).
T3 construct: JAK3 (a.a. 781-1124); His tag (N); made in house; host or cells: insect cells (baculovirus)
Put plainly: In vitro JAK kinase assay (HTRF, phosphorylation of a biotinylated peptide), JAK3. The format is biochemical. The method in brief: as §1

The target in data set [4] is TYK2 (Homo sapiens, UniProt P29597). Put plainly: TYK2 kinase inhibition (Table A1). The format is biochemical.
Data set [5] has as its target T4, Recombinant Human Anaplastic Lymphoma Kinase (Homo sapiens, UniProt Q9UM73).
T4 construct: purchased Invitrogen, Carlsbad, Calif
Put plainly: ALK HTRF kinase assay. The class given is biochemical. The note with it: for ALK % inhibition at a concentration of 500 nM or 1 mM: compound at a concentration of 500 nM or 1 mM; for IC50: Table D1, 90 μM ATP. The method in brief:
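TR-FRET read-out (Eu anti-pTyr antibody + streptavidin-APC) of biotin-peptide phosphorylation by recombinant human enzyme; IC50 by sigmoidal fit with top/bottom baselines and Hill slope.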

The conditions of data set [6]: from Nc1cc(CCc2cccc(Nc3nc(Cl)ncc3Cl)c2)ccn1; cn_pd bond; 13-membered ring; Pd(OAc)2/Xantphos/Cs2CO3/Et3N; 1,4-dioxane/DMF 1:1; 57.0 mM; 160.0 °C; 0.33 h.

T2 sequence (O60674 828-1132): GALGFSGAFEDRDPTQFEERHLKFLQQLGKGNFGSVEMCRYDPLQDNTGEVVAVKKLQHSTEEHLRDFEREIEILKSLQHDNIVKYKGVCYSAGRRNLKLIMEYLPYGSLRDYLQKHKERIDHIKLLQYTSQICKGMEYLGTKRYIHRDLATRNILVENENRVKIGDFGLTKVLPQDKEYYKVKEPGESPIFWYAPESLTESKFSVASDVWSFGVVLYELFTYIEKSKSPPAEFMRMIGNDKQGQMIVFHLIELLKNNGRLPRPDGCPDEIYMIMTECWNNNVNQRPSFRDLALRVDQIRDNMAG
T3 sequence (P52333 781-1124): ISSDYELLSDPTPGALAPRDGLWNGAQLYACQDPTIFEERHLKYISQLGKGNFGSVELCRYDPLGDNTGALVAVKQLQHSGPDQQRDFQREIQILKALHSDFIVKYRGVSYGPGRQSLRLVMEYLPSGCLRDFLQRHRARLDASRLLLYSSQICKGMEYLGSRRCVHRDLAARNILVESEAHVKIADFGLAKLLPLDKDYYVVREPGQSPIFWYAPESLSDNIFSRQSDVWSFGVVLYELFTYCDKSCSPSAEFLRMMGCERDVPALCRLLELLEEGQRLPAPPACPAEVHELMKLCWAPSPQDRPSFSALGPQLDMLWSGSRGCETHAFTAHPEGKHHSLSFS
TYK2, sequence (P29597 whole entry): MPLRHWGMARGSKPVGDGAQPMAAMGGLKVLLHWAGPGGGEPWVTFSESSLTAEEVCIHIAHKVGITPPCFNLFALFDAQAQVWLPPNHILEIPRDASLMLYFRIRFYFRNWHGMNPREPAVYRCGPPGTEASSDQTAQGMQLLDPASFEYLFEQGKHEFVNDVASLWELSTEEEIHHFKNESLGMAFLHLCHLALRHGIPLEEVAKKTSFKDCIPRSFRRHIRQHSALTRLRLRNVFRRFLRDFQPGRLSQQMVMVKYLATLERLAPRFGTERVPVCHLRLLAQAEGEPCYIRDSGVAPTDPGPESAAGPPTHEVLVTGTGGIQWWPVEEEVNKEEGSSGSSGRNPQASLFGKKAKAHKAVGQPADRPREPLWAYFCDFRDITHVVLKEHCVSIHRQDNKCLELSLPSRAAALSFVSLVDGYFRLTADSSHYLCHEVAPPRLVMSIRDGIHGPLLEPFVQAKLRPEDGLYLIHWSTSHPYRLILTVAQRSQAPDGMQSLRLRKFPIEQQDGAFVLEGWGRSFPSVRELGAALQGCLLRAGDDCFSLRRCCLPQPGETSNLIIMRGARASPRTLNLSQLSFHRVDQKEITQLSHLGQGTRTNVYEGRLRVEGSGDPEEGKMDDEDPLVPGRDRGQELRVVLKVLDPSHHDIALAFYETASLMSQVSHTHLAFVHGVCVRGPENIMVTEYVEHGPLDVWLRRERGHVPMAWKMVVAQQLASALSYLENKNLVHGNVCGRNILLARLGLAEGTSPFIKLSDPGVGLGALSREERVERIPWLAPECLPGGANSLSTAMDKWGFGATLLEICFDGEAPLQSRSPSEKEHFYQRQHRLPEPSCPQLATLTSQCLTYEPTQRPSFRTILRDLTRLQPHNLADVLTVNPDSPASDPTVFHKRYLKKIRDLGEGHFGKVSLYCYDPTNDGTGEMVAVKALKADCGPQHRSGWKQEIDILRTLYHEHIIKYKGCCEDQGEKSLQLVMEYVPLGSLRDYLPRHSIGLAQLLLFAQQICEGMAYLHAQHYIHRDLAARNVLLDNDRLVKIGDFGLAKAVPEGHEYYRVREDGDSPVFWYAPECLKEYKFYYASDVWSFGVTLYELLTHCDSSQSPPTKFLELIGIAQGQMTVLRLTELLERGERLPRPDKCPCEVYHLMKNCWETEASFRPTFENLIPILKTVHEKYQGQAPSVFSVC
T4 sequence (Q9UM73 19-1620): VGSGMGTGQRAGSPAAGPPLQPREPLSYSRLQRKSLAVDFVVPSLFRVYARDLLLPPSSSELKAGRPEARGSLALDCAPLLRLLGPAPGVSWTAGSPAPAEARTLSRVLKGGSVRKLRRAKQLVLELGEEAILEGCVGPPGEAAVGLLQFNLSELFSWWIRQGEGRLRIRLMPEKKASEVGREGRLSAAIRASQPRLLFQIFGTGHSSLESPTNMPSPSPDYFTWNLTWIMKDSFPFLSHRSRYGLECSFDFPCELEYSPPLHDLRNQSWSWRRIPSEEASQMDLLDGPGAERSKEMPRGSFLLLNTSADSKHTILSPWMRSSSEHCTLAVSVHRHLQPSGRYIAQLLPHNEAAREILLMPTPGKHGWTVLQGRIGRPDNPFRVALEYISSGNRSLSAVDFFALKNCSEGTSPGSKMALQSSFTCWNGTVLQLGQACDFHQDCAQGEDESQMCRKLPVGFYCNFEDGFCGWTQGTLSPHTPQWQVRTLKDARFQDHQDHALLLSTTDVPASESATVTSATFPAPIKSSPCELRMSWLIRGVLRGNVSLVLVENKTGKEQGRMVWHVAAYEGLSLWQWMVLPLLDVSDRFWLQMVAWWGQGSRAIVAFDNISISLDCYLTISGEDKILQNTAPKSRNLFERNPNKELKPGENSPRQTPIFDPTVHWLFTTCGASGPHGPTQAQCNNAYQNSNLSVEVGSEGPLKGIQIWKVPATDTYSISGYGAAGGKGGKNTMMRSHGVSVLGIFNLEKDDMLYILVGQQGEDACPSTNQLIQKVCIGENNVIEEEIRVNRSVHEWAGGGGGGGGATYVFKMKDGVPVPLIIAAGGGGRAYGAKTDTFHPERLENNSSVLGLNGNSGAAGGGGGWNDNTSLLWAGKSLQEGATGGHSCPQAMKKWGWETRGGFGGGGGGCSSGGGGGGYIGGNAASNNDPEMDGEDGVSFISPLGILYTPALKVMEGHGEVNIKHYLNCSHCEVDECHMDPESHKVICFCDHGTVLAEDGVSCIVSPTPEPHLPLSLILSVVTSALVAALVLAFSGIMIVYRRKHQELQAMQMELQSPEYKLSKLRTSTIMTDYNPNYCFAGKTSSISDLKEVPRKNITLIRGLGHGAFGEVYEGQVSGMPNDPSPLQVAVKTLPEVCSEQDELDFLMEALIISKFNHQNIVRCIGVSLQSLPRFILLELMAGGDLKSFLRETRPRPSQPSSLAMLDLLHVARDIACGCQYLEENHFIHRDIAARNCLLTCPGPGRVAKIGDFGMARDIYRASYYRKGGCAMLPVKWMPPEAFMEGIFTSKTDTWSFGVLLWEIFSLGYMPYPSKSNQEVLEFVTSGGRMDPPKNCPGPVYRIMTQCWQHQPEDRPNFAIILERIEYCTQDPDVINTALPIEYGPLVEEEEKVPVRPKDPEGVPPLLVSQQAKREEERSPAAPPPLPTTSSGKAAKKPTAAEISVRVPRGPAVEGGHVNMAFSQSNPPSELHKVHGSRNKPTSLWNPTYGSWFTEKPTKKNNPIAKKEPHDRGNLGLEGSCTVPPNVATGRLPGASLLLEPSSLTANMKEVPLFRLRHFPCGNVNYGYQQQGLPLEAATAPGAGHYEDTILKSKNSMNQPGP
T1 sequence (P23458 849-1154): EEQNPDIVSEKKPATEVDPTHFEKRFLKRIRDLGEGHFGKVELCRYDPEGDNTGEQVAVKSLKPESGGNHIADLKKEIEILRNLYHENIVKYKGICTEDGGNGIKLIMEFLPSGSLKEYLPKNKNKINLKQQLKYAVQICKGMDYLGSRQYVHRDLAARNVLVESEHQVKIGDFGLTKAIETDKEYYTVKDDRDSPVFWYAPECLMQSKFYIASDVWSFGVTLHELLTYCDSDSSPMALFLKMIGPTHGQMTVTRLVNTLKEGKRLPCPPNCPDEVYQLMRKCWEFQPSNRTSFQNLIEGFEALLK

The compound `Nc1ccc2cc1CCc1cncc(c1)Nc1ncc(F)c(n1)N2` returned a ring closure, yield after HPLC (from Nc1cncc(CCc2cc(Nc3nc(Cl)ncc3F)ccc2N)c1, cn_pd bond, 13-membered ring, Pd(OAc)2/Xantphos/Cs2CO3/Et3N, 1,4-dioxane, 158.0 mM, 160.0 °C, 0.33 h) of 8%.

Under “from Nc1cncc(CCc2cc(Nc3nc(Cl)ncc3Cl)ccc2N)c1, cn_pd bond, 13-membered ring, Pd2(dba)3/Xantphos/Cs2CO3/DIEA, 1,4-dioxane/DMF 3:1, 77.0 mM, 160.0 °C, 0.5 h”, `Nc1ccc2cc1CCc1cncc(c1)Nc1ncc(Cl)c(n1)N2` [Example B20, 6-Chloro-2,4,8,18,22-pentaazatetracyclo[14.3.1.1(3,7).1(9,13)]docosa-1(20),3(22),4,6,9(21),10,12,16,18-nonaen-12-amine tris(trifluoroacetate)] yielded a ring closure, yield after HPLC of 23%. Moreover, the IC50 was 1 nM in data set [1] (Table B1), 1.3 nM in data set [2] (Table B1), 6.7 nM in data set [3] (Table B1) and 1.6 nM in data set [4] (Table B1). Besides, in data set [5] (compound at a concentration of 500 nM or 1 mM (not specified), cells shown as percentage), the “ALK % of inhibition at a concentration of 500 nM or 1 mM” value is 51%.

`Clc1cnc2nc1Nc1cccc(c1)CCc1ccnc(c1)N2` [Example C15, 6-Chloro-2,4,8,19,22-pentaazatetracyclo[14.3.1.1(3,7).1(9,13)]docosa-1(20),3(22),4,6,9(21),10,12,16,18-nonaene]: in data set [6], the ring closure, isolated yield was found to be 61%. The results for the IC50 in data set [1], in data set [2] and in data set [4] were 700 nM, 87 nM and 106 nM, respectively. For the same compound, the “ALK % inhibition at a concentration of 500 nM or 1 mM” value (from here on “ALK % inhibition at a concentration”) in data set [5] was found to be 6%.

Compound `Clc1cnc2nc1Nc1cccc(c1)CCc1cncc(c1)N2` [Example C19, 6-Chloro-2,4,8,18,22-pentaazatetracyclo[14.3.1.1(3,7).1(9,13)]docosa-1(20),3(22),4,6,9(21),10,12,16,18-nonaene bis(trifluoroacetate)] gave a ring closure, yield after HPLC (from Nc1cncc(CCc2cccc(Nc3nc(Cl)ncc3Cl)c2)c1, cn_pd bond, 13-membered ring, Pd(OAc)2/Xantphos/Cs2CO3/Et3N, 1,4-dioxane, 140.0 mM, 150.0 °C, 1.0 h) of 28%. Moreover, the IC50 in data set [1] worked out at 2.9 nM; in data set [2] it was 7 nM; in data set [3], 28 nM; in data set [4] it was 10 nM. Also, the “ALK % inhibition at a concentration” value in data set [5] stood at 45%.

Under “from Nc1cncc(/C=C\c2cccc(Nc3nc(Cl)ncc3Cl)c2)c1, cn_pd bond, 13-membered ring, Pd(OAc)2/Xantphos/Cs2CO3/Et3N, 1,4-dioxane, 70.0 mM, 150.0 °C, 1.0 h”, `Clc1cnc2nc1Nc1cccc(c1)/C=C\c1cncc(c1)N2` [Example C20, (14Z)-6-Chloro-2,4,8,18,22-pentaazatetracyclo[14.3.1.1(3,7).1(9,13)]docosa-1(20),3(22),4,6,9(21),10,12,14,16,18-decaene bis(trifluoroacetate)] gave a ring closure, yield after HPLC of 30%. Moreover, the IC50 in data set [1] was 2.9 nM; in data set [2], 2.3 nM; in data set [3], 13 nM; in data set [4], 4.4 nM. Besides, the “ALK % inhibition at a concentration” value in data set [5] was found to be 26%.

Compound `Fc1cnc2nc1Nc1cccc(c1)CCc1cncc(c1)N2` [Example C21, 6-Fluoro-2,4,8,18,22-pentaazatetracyclo[14.3.1.1(3,7).1(9,13)]docosa-1(20),3(22),4,6,9(21),10,12,16,18-nonaene bis(trifluoroacetate)] yielded a ring closure, yield after HPLC (from Nc1cncc(CCc2cccc(Nc3nc(Cl)ncc3F)c2)c1, cn_pd bond, 13-membered ring, Pd(OAc)2/Xantphos/Cs2CO3/Et3N, 1,4-dioxane, 87.0 mM, 150.0 °C, 2.0 h) of 37%. Moreover, the IC50 in data set [1] amounted to 13 nM; in data set [2], 28 nM; in data set [3], 111 nM; in data set [4], 15 nM. In addition, the “ALK % inhibition at a concentration” value in data set [5] is recorded as 26%.

As for `Cc1cnc2nc1Nc1ccc(N)c(c1)CCc1cncc(c1)N2` [Example C50, 6-Methyl-2,4,8,18,22-pentaazatetracyclo[14.3.1.1(3,7).1(9,13)]docosa-1(20),3(22),4,6,9(21),10,12,16,18-nonaen-12-amine tris(trifluoroacetate)], the ring closure, yield after HPLC (from Cc1cnc(Cl)nc1Nc1ccc(N)c(CCc2cncc(N)c2)c1, cn_pd bond, 13-membered ring, Pd(OAc)2/Xantphos/Cs2CO3/Et3N, 1,4-dioxane, 135.0 mM, 160.0 °C, 0.33 h) was found to be 50%. Besides, the IC50 in data set [1] is 33 nM; in data set [2] it was 111 nM; in data set [3], over 400 nM; in data set [4] it was 80 nM.

As to `Clc1cnc2nc1Nc1cccc(c1)CCOc1cccc(c1)N2` [Example D5, 6-Chloro-16-oxa-2,4,8,23-tetraazatetracyclo[15.3.1.1(3,7).1(9,13)]tricosa-1(21),3(23),4,6,9(22),10,12,17,19-nonaene trifluoroacetate], the ring closure, yield after HPLC (from OCCc1cccc(Nc2nc(Nc3cccc(O)c3)ncc2Cl)c1, ether bond, 14-membered ring, PPh3/DIAD, THF, 8.5 mM, 25.0 °C, 2.0 h) was 20%. In addition, the IC50 in data set [1] (Table D1) was 30 nM; in data set [2] (Table D1), 15 nM; in data set [3] (Table D1), 36 nM; in data set [4] (Table D1) it was 12 nM; in data set [5] it was 509 nM.

In the case of `CC(=O)N1Cc2cccc(c2)Nc2ncc(Cl)c(n2)Nc2cccc(c2)C1` [Example D74, 15-Acetyl-6-chloro-2,4,8,15,23-pentaazatetracyclo[15.3.1.1(3,7).1(9,13)]tricosa-1(21),3(23),4,6,9(22),10,12,17,19-nonaene trifluoroacetate], the IC50 was 160 nM in data set [1] (Table D1); 83 nM in data set [2] (Table D1); 225 nM in data set [3] (Table D1); 343 nM in data set [4] (Table D1); over 1000 nM in data set [5].

In the case of `Clc1cnc2nc1Nc1cccc(c1)NCCCc1cccc(c1)N2` [Example D75, 6-Chloro-2,4,8,14,24-pentaazatetracyclo[16.3.1.1(3,7).1(9,13)]tetracosa-1(22),3(24),4,6,9(23),10,12,18,20-nonaene bis(trifluoroacetate)], the IC50 in data set [1] (Table D1) was determined as 50 nM; in data set [2] (Table D1) it was 26 nM; in data set [3] (Table D1), 80 nM; in data set [4] (Table D1), 60 nM; in data set [5] it was 1250 nM.

`O=C1CCc2cccc(c2)Nc2nc(ncc2Cl)Nc2cccc(c2)N1` [Example D76, 6-Chloro-2,4,8,17,24-pentaazatetracyclo[16.3.1.1(3,7).1(9,13)]tetracosa-1(22),3(24),4,6,9(23),10,12,18,20-nonaen-16-one trifluoroacetate]: the IC50 in data set [1] (Table D1) is 11 nM; in data set [2] (Table D1), 18 nM; in data set [3] (Table D1), 117 nM; in data set [4] (Table D1), 13 nM; in data set [5], 2050 nM.

Consider `Clc1cnc2nc1Nc1cccc(c1)CCCNc1cccc(c1)N2` [Example D77, 6-Chloro-2,4,8,17,24-pentaazatetracyclo[16.3.1.1(3,7).1(9,13)]tetracosa-1(22),3(24),4,6,9(23),10,12,18,20-nonaene bis(trifluoroacetate)], for which the IC50 in data set [1] (Table D1) worked out at 8.9 nM; in data set [2] (Table D1) it was 3.1 nM; in data set [3] (Table D1), 11 nM; in data set [4] (Table D1) it was 5.6 nM; in data set [5], 400 nM.

As for `Clc1cnc2nc1Nc1cccc(c1)CCNc1cccc(c1)N2` [Example D78, 6-Chloro-2,4,8,16,23-pentaazatetracyclo[15.3.1.1(3,7).1(9,13)]tricosa-1(21), 3(23),4,6,9(22),10,12,17,19-nonaene bis(trifluoroacetate)], the IC50 was 30 nM in data set [1] (Table D1); 10 nM in data set [2] (Table D1); 30 nM in data set [3] (Table D1); 19 nM in data set [4] (Table D1); 791 nM in data set [5].

As to `Clc1cnc2nc1Nc1cccc(c1)SCCNc1cccc(c1)N2` [Example D80, 6-Chloro-14-thia-2,4,8,17,24-pentaazatetracyclo[16.3.1.1(3,7).1(9,13)]tetracosa-1(22),3(24),4,6,9(23),10,12,18,20-nonaene bis(trifluoroacetate)], the IC50 in data set [1] (Table D1) is 7.4 nM; in data set [2] (Table D1), 4.9 nM; in data set [3] (Table D1), 23 nM; in data set [4] (Table D1) it was 8.8 nM; in data set [5] it was 570 nM.

On to `N#Cc1ccc2cc1OCCSc1cccc(c1)Nc1nc(ncc1Cl)N2` [Example D81, 6-Chloro-17-oxa-14-thia-2,4,8,24-tetraazatetracyclo[16.3.1.1(3,7).1(9,13)]tetracosa-1(22),3(24),4,6,9(23),10,12,18,20-nonaene-19-carbonitrile trifluoroacetate], for which the IC50 was 12 nM in data set [1] (Table D1); 16 nM in data set [2] (Table D1); 130 nM in data set [3] (Table D1); 53 nM in data set [4] (Table D1); over 10000 nM in data set [5].

Values taken from patent publication US8871753B2, “Macrocyclic compounds and their use as kinase inhibitors” (Incyte Corporation, priority 2008, dated 2014).
